Measurements as given in patent US6646006B2, “Enhancement of vascular function by modulation of endogenous nitric oxide production or activity” (The Board of Trustees of the Leland Stanford Junior …, priority 1993, dated 2003).

Legend:
[1] = system: hypercholesterolemic rabbits; assay: Oral L-lysine in cholesterol-fed rabbits: vasorelaxation and histomorphometry; format: in vivo, rabbit; conditions: ten weeks
Excerpt: FIG. 9 is a set of dose-response curves showing the effect of chronic lysine administration on endothelium dependent vasodilation in hypercholesterolemic rabbits. […] Chronic administration of lysine was just as effective as arginine in restoring vascular function and structure. (See Ex. 14)
L-lysine is a basic amino acid like L-arginine, but is not known to be metabolized by NO synthase to NO. Therefore, the following results were unexpected. New Zealand white rabbits were fed a normal or high cholesterol chow (n=18). Half of the animals on the cholesterol diet also received oral L-lysine. After ten weeks, the thoracic aortae were harvested and bioassayed for vascular NO synthesis, and histomorphometry to assess lesion formation was performed as described above.

[2] = system: Smooth muscle cells (SMC); assay: Oxidized LDL-exposed aortic smooth muscle cells: MCP-1, superoxide anion, NFκB; format: cell-based, rabbit; conditions: DETA-NONOate 100 μM pre-exposure, oxLDL 30 μg/ml
Protocol: (§1) Methods and Results. Smooth muscle cells (SMC) were isolated from normal rabbit aortae by explant method. Cells were then exposed to oxidized LDL (30 μg/ml) (which is known to induce vascular cells to synthesize MCP-1). […] All of these effects of oxidized LDL cholesterol were reduced by previous exposure of the SMC to the NO-donor DETA-NONOate (100 μM) (p<0.05). To determine if NO exerted its effect at a transcriptional level, SMC and COS cells were transfected with a 400 bp fragment of the MCP-1 promoter. Enhanced promoter activity by oxLDL was inhibited by DETA-NO.

MCP-1 promoter = MCP-1 promoter activity in transfected SMC and COS cells; format: cell-based; conditions: 400 bp promoter fragment
Protocol: as §1

[3] = system: hypercholesterolemic rabbits; conditions: vs 1% cholesterol diet alone, ten weeks
Excerpt: At ten weeks animals were sacrificed for studies of platelet and vascular reactivity, and histomorphometry.

[4] = system: human aortic endothelial cells (HAEC); assay: Flow-exposed human aortic endothelial cells: THP-1 monocyte binding after oxLDL or LPS/TNF; format: cell-based; conditions: oxLDL 30 μg/ml
Protocol: FIG. 6. Stimulation of cultured endothelial cells with fluid flow causes them to secrete nitric oxide. Flow-induced secretion of nitric oxide decreases endothelial adhesiveness induced by oxidized LDL cholesterol (oxLDL; 30 μg/ml). Exposure of human aortic endothelial cells to oxLDL increased the ex vivo binding of monocytes when compared to Control. In comparison to cells not exposed to flow (static), previous exposure to flow inhibited the monocyte adhesion induced by oxLDL. These effects of flow were blocked by NO synthase inhibitors and mimicked by NO donors (PAPA-NO) or cyclic GMP (cGMP). Bars represent mean±SEM. *p<0.05; **p<0.01. (See Ex. 8)
Methods and Results: Confluent monolayers of human aortic endothelial cells (HAEC) were exposed to static or fluid flow conditions for 4 hours (fluid flow stimulates the production of endogenous nitric oxide). Medium was then replaced and cells were then incubated with native LDL (50 μg/ml), oxidized LDL (30 μg/ml), or LPS (10 ng/ml)+TNF-α (10 U/ml) for an additional 4 hours. Functional binding assays utilizing THP-1 monocytes were then performed. Superoxide production by HAECs was monitored by lucigenin chemiluminescence and expression of the adhesion molecules VCAM-1 and ICAM-1 was quantitated by flow cytometry. […] Previous exposure to fluid flow inhibited endothelial adhesiveness for monocytes (FIG. 6) and the other sequelae of exposure to cytokines or oxidized lipoprotein.

platelets = assay: ADP-initiated platelet aggregation (nephelometry), platelets from treated rabbits; format: in vivo, rabbit; conditions: N-methylarginine 10^−4 M in vitro
Protocol: The effect of L-arginine supplementation on platelet reactivity in rabbits that had normal chow (Control; n=6), a 1% cholesterol diet (Chol; n=5), or a 1% cholesterol diet supplemented with oral arginine (Arg; n=6), as detailed above, was examined. Arterial blood obtained after central ear artery cannulation was anticoagulated with 13 mM sodium citrate. Platelet-rich suspension was prepared by washing platelets in calcium-free Krebs-Henseleit solution and resuspending them in Tyrode's solution with albumin. Aggregation was initiated by addition of adenosine diphosphate and monitored by standard nephelometric techniques. In platelets derived from Chol animals, aggregation was not different in rate or maximum extent in comparison to platelets from Control animals (A, in FIG. 2). By contrast, aggregation of platelets from Arg animals was reduced by 50% (B, in FIG. 2).
Therefore, the anti-platelet effect of chronic oral arginine administration can be credited to an increased synthesis of endogenous NO. Furthermore, NO synthesis may be induced in both the platelets and the endothelium.

NCCCC[C@H](N)C(=O)O [L-lysine]
vascular NO activity (endothelium-dependent vasorelaxation) [1]: just as effective as L-arginine
vascular lesion formation / plaque area [1]: marked reduction
vascular NO activity (endothelium-dependent vasorelaxation) ([1]; listed as lysine): improved

NCCN(CCN)/[N+]([O-])=N/O [DETA-NONOate]
activity of NFκB induced by oxidized LDL [2]: reduced
expression of MCP-1 induced by oxidized LDL [2]: reduced
generation of superoxide anion induced by oxidized LDL [2]: reduced
MCP-1 promoter activity enhanced by oxLDL (MCP-1 promoter): inhibited

CSCC[C@H](N)C(=O)O [methionine]
endothelium-dependent relaxation [3]: not different
intimal thickness [3]: not different
platelet aggregation [3]: not different

CCCN(CCCN)/[N+]([O-])=N/O [PAPA-NONOate]
mimicry of the effects of flow on monocyte adhesion [4]: mimicked the effects of flow
mimicry of the effects of flow on monocyte adhesion ([4]; listed as PAPA-NO): mimicked

Nc1nc2c(ncn2[C@@H]2O[C@@H]3COP(=O)(O)O[C@H]3[C@H]2O)c(=O)[nH]1 [cGMP, cyclic guanosine monophosphate]
mimicry of the effects of flow on monocyte adhesion [4]: mimicked

CN[C@@H](CCCNC(=N)N)C(=O)O [N-methylarginine, reference compound]
reversal of the arginine-induced reduction of platelet reactivity (platelets): could be reversed
reversal of the arginine-induced reduction of platelet reactivity (platelets; listed as LNMMA): reverses
